{
  "source": "patent US8513226B2",
  "about": "“Simultaneous method for the preparation of a mixture of 3-acetoxy-17-acetamido-16-formyl-androst-5,17-diene and 3-acetoxy-2'-chloro-5-androsteno[17,16-b]pyridine” (Council of Scientific and Industrial Research, priority 2008, dated 2013)",
  "key": {"[1]": {"biological_target": "H^+,K^+-ATPase (Sus scrofa, UniProt P19156)", "sequence (P19156 whole entry)": "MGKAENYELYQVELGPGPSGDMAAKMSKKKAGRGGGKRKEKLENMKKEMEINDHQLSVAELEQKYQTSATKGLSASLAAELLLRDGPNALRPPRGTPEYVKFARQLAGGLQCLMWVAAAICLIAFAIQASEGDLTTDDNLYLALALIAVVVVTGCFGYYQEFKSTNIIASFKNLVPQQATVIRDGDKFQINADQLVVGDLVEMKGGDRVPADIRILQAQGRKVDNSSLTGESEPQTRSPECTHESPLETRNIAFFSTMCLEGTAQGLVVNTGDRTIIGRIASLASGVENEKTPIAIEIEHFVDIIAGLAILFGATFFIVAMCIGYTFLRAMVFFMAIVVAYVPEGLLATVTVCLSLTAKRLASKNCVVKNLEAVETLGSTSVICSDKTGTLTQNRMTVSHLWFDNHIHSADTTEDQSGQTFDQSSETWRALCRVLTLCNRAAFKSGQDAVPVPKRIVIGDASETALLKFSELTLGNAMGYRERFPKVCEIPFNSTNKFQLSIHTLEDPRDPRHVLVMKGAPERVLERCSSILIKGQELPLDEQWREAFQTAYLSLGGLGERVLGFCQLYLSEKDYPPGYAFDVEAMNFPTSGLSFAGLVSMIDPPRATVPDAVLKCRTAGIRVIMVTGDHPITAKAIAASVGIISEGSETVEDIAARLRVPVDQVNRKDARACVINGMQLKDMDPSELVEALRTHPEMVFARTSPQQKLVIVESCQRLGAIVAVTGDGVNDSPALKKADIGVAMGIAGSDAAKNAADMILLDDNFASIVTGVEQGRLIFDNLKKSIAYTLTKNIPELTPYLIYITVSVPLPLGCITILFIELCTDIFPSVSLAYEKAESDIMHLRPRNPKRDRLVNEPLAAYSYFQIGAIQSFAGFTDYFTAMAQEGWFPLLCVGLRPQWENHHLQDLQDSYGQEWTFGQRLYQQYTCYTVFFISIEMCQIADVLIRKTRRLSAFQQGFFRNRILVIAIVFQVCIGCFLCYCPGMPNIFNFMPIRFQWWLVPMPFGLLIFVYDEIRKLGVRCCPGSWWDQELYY", "sequence (P18434 whole entry partner)": "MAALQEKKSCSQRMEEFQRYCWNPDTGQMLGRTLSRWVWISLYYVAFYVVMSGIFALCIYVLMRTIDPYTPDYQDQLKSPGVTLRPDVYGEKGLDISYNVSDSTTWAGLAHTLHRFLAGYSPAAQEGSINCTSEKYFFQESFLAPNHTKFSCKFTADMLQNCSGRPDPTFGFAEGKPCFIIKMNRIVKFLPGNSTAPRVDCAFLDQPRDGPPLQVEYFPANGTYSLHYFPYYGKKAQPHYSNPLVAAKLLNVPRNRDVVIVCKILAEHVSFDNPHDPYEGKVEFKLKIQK", "test": "H+,K+-ATPase (gastric proton pump) inhibition in pig gastric membranes", "type": "biochemical", "conditions": "for IC50: read-out: calculated IC50, H^+,K^+-ATPase", "protocol": "Pig gastric membranes enriched in apical and tubulovesicular membranes were prepared as described in the literature (S Bandopadhyay, P K Das, M V Wright, J Nandi, D Bhattacharya & T K Ray, J. Biol. Chem. 1987, 262, 5664). The fundic mucosal regions of pig stomach were desquamated and scrapped to collect oxyntic cell-riched fractions. The homogenized tissue was centrifuged at 5000×g for 8 min, the supernatant was layered over 37% sucrose and centrifuged at 100,000×g for 4½ h. The major membrane band appeared in the interface was collected, diluted with homogenizing buffer and recentrifuged at 110,000×g for 90 min. The pellet containing H^+,K^+-ATPase rich apical and tubulovesicular membranes was suspended in appropriate buffer and stored at −80° C. for use as the source of enzyme.\nThe H^+,K^+-ATPase activity was measured at 37° C. in a 1 ml reaction mixture containing 2 mM MgCl2, 2 mM ATP, 10 mM PIPES (pH 6.8), 20 mM KCl and 10-15 μg membrane protein. […] After incubation for 10 min, the reaction was terminated by addition of 1 ml ice-chilled TCA (14%).\nK^+-stimulated activity, referred to as H^+,K^+-ATPase, was calculated as the difference between the activity in presence of Mg^+2 plus K^+ and basal activity (Mg^+-ATPase) in presence of Mg^+2 alone. […] The liberated inorganic phosphate was quantitated according to a reported procedure (H Sanui, Anal. Biochem. 1974, 60, 489) and the effects of 4 and 5 were assessed. The effects are quantitated in terms of percent inhibition of H^+,K^+-ATPase activity, and compared with that of omeprazole."}, "[2]": {"system": "cold restraint stress ulcer in rats", "test": "Cold restraint stress induced ulceration", "type": "in vivo, rat", "conditions": "for protection of ulceration induced by cold restraint stress: 50 mg/kg body weight", "protocol": "Adult rats of either sex, weighing about 200 g were fasted for 24 h with free access to water. Compound 4 (in 0.4% hydroxypropylmethylcellulose, HPMC) were administered 45 min before immobilizing the animals. The rats were immobilized in the restraint cage at 4 °C for 4 h and were sacrificed immediately after the restraint period according to the method of Senay and Levine (E C Senay & R J Levine, Proc. Soc. Exp. Biol. Med. 1967, 124, 1221). The abdomen was cut opened, stomach taken out and incised along the greater curvature to observe the gastric lesions. The ulceration was rated and the ulcer index (UI) scored as described in Wagner et al. (K Wagner, J Nandi, R L King & R A Levine, Dig. Dis. Sci. 1995, 40, 134), the effect of compound 4 being expressed graphically as a function of ulcer index and the result was further expressed as the percent protection of the ulcer formation in comparison to the untreated control group (FIG. 4)."}, "[3]": {"system": "rabbit gastric parietal cells", "test": "Basal acid secretion (aminopyrine uptake) in gastric parietal cells", "type": "cell-based", "conditions": "Oryctolagus cuniculus", "method": "(§1) Briefly, the technique involves high-pressure perfusion of the stomach in live animal with oxygenated PBS, stripping and mincing the mucosa followed by 2-step proteolytic digestion at 37° C., first with a mixture of protease (0.1 mg/ml) and pronase (1 mg/ml) for 15 min and then the pellet obtained therefrom with collagenase (1 mg/ml) for 30 min. The washed cell pellet containing majority of the gastric cells was layered on top of a two-step gradient of Nycodenz (density 1.05 and 1.075 g/ml) and centrifuged at 150×g for 10 min. Parietal cells enriching in between density of 1.05 and 1.075 interface were collected, washed 3 times with respiratory medium and used for the study. The PC preparations were nearly 90% pure and viable.\n(§2) The [^14C]-aminopyrine (115 μCi/mM) was added to the suspension at a concentration of 0.1 mCi/ml, and incubation was continued for another 10 min. One-milliliter aliquots of such PC suspension (˜5×10^6 cells) were further incubated in the presence and the absence of histamine (0.1 mM) for 20 min at 37° C. with slow shaking and oxygen top gassing. At the end of the incubation, the PC suspensions were centrifuged, supernatant carefully aspired off and the pellets solubilized in scintillation fluid containing Triton X-100. The resulting solution was counted in a liquid scintillation counter. The aminopyrine accumulation was determined as the ratio of intra- to extracellular aminopyrine according to Mazzeo et al. (A R Mazzeo, J Nandi & R A Levine, Am. J. Physiol. 1988, 254, G57)."}, "[4]": {"system": "pylorus-ligated rats", "test": "Gastric secretion in pylorus-ligated rats", "type": "in vivo, rat", "protocol": "The pylorus of each rat was ligated under anesthesia according to the method of Shay et. al. (H Shay, S A Komarov, S S Fels, D Merange, M Grunstein & H Siplet, Gastroenterol. 1945, 4, 43). Each of the animals were then allowed to stand abstained from food and water in a cage. After 4 h, the animals were sacrificed and the stomachs were removed. The gastric contents were collected and centrifuged, and the secretory volume, pH and acid content of the supernatants were measured. The acid content was measured by titrating to pH 7.0 with 0.01 N NaOH using an autotitrator (Metrohm). The total acid content of the drug treated groups was compared to that of control groups, presented graphically in FIG. 5 and thereby, the reduction percentage of acid content was calculated. Compound 4 was suspended in 0.4% HPMC and administered orally at graded dose (10, 20, 50 and 100 mg/kg dose) in different groups 45 min before the ligation. In the control group, the vehicle (0.4% HPMC) was administered."}, "[5]": {"system": "indomethacin-induced ulcer in rat", "test": "Indomethacin-induced ulcer in rat", "type": "in vivo", "conditions": "for protection of indomethacin induced ulcer formation: p.o. 45 min before indomethacin 15 mg/kg p.o.", "method": "The animals were kept fasting for 24 h before initiating the experiment, drinking water being available ad libitum. The animals were allotted to three groups, each group comprising of six rats. […] Six hours following the administration of indomethacin, the animals were killed, stomachs removed and opened along the greater curvature."}, "[6]": {"system": "Swiss albino mice", "test": "Single-dose acute toxicity evaluation", "type": "in vivo", "conditions": "1 g/kg body weight orally, 15 days observation", "source_text": "The Compound 4 was checked for mortality of the Swiss albino mice. Five animals of Swiss albino mice strain were used for this purpose. The dosage up to 1 g/kg body weight was given orally per mice and the animals kept up to 15 days under observation. It was observed that the mice were not affected at the dose level of 1 g/kg body weight of Compound 4."}, "[7]": {"system": "rabbit gastric parietal cells", "test": "Histamine-stimulated acid secretion (aminopyrine uptake) in gastric parietal cells", "type": "cell-based", "conditions": "histamine 0.1 mM", "method": "as §1, §2"}},
  "note": "Entries after “also recorded” stand apart in the source; their conditions may differ. Like-named read-outs stand apart in the source and are kept apart here.",
  "data": [
    {"molecule": "CC(=O)O[C@H]1CC[C@@]2(C)C(=CC[C@@H]3[C@@H]2CC[C@]2(C)c4nc(Cl)ccc4C[C@@H]32)C1", "note": "[Compound 5, 3-acetoxy-2′-chloro-5-androsteno[17,16-b]pyridine]", "values": [
      {"measurement": "inhibition of H^+,K^+-ATPase (in words)", "setting": "[1]", "value": "nominal"},
      {"measurement": "% Inhibition H^+, K^+-ATPase", "setting": "[1]; concentration 1 μM", "value": 2, "unit": "%"},
      {"measurement": "% Inhibition H^+, K^+-ATPase", "setting": "[1]; concentration 10 μM", "value": 37, "unit": "%"},
      {"measurement": "% Inhibition H^+, K^+-ATPase", "setting": "[1]; concentration 100 μM", "value": 57, "unit": "%"}
    ]},
    {"molecule": "CN/C(=N/CCSCc1nc[nH]c1C)NC#N", "note": "[Cimetidine, reference compound]", "values": [
      {"measurement": "protection of ulceration induced by cold restraint stress", "setting": "[2]", "value": 86, "unit": "%"},
      {"measurement": "inhibition at 200 µM", "setting": "[3]; 200 μM", "value": "~10", "unit": "%"},
      {"measurement": "inhibition of acid output", "setting": "[4]; 50 mg/kg", "value": "~80", "unit": "%"}
    ]},
    {"molecule": "CC(=O)NC1=C(C=O)CC2C3CC=C4CC(OC(C)=O)CCC4(C)C3CCC12C", "note": "(stereo not shown) [Compound 4, 3-acetoxy-17-acetamido-16-formyl-androst-5,17-diene]", "values": [
      {"measurement": "inhibition of H^+,K^+-ATPase (in words)", "setting": "[1]", "value": "dose dependent"},
      {"measurement": "nature of inhibition of H^+,K^+-ATPase", "setting": "[1]", "value": "irreversible"},
      {"measurement": "Observation (nature of inhibition)", "setting": "[1]; 10 μM, different protein to inhibitor ratio", "value": "Irreversible"},
      {"measurement": "Observation (nature of inhibition)", "setting": "[1]; 10 μM, function of preincubation time", "value": "Irreversible"},
      {"measurement": "inhibition at 10 µM", "setting": "[1]; 10 μM, preincubation time 0 min, read-out: % Inhibition of H^+, K^+-ATPase", "value": 2, "unit": "%"},
      {"measurement": "inhibition at 10 µM", "setting": "[1]; 10 μM, preincubation time 30 min, read-out: % Inhibition of H^+, K^+-ATPase", "value": 56, "unit": "%"},
      {"measurement": "inhibition at 10 µM", "setting": "[1]; 10 μM, protein concentration 5 μg/assay, read-out: % Inhibition of H^+, K^+-ATPase", "value": 75, "unit": "%"},
      {"measurement": "inhibition at 10 µM", "setting": "[1]; 10 μM, protein concentration 20 μg/assay, read-out: % Inhibition of H^+, K^+-ATPase", "value": 57, "unit": "%"},
      {"measurement": "inhibition at 1 µM", "setting": "[1]; concentration 1 μM", "value": 7, "unit": "%"},
      {"measurement": "inhibition at 5 µM", "setting": "[1]; concentration 5 μM", "value": 20, "unit": "%"},
      {"measurement": "inhibition at 10 µM", "setting": "[1]; concentration 10 μM, read-out: % Inhibition H^+, K^+-ATPase", "value": 47, "unit": "%"},
      {"measurement": "inhibition at 100 µM", "setting": "[1]; concentration 100 μM", "value": 75, "unit": "%"},
      {"measurement": "IC50", "setting": "[1]", "value": 18, "unit": "µM"},
      {"measurement": "protection of ulceration induced by cold restraint stress", "setting": "[2]", "value": 54, "unit": "%"},
      {"measurement": "antiulcer activity in cold restraint stress ulcer model (in words)", "setting": "[2]; 50 mg/kg body wt.", "value": "potent antiulcer activity"},
      {"measurement": "anti ulcer activity in indomethacin-induced ulcer model (in words)", "setting": "[5]; 10-50 mg/kg b.w.", "value": "potent anti ulcer activity"},
      {"measurement": "protection of indomethacin induced ulcer formation", "setting": "[5]", "value": "~75", "unit": "%"},
      {"measurement": "inhibition at 300 µM", "setting": "[3]; 300 μM (highest concentration)", "value": "~10", "unit": "%"},
      {"measurement": "mortality and behavioral abnormality, single-dose acute toxicity", "setting": "[6]", "value": "No mortality and behavioral abnormality; also recorded: did not show acute toxicity"},
      {"measurement": "inhibition of acid output", "setting": "[4]; 50 mg/kg", "value": "~33", "unit": "%"},
      {"measurement": "inhibition of acid output", "setting": "[4]; 50-100 mg/kg, oral", "value": "~30", "unit": "%"},
      {"measurement": "IC50", "setting": "[7]; Oryctolagus cuniculus, read-out: IC50, inhibition of histamine-stimulated acid secretion", "value": "~130", "unit": "µM"},
      {"measurement": "activity compared with cimetidine in inhibiting histamine-stimulated secretion", "setting": "[7]", "value": "IC50 value comparable to cimetidine; also recorded: almost equiactive as compared with cimetidine"}
    ]},
    {"molecule": "COc1ccc2[nH]c([S+]([O-])Cc3ncc(C)c(OC)c3C)nc2c1", "note": "(stereo not shown) [Omeprazole, 5-methoxy-2-[(4-methoxy-3,5-dimethyl-2-pyridinyl)-methyl]sulfinyl-1H-benzimidazole, reference compound]", "values": [
      {"measurement": "inhibition at 3 µM", "setting": "[1]; concentration 3 μM", "value": 20, "unit": "%"},
      {"measurement": "inhibition at 30 µM", "setting": "[1]; concentration 30 μM", "value": 80, "unit": "%"},
      {"measurement": "inhibition of H^+,K^+-ATPase", "setting": "[1]; concentration range 3 μM and 30 μM", "value": "20-80%"},
      {"measurement": "potency relative to 4 (H^+,K^+-ATPase)", "setting": "[1]; from IC50 values", "value": "about three times more potent than 4"},
      {"measurement": "IC50", "setting": "[1]", "value": "~6", "unit": "µM"},
      {"measurement": "protection of indomethacin induced ulcer formation", "setting": "[5]", "value": "~90", "unit": "%"},
      {"measurement": "inhibition at 20 µM", "setting": "[3]; 20 μM", "value": "80 to 90", "unit": "%"}
    ]}
  ]
}
